According to ChEMBL document CHEMBL1153678, “Bromobenzofurans : a new class of potent, non-peptide antagonists of angiotensin II” (Bioorg Med Chem Lett, 1991):

Each compound was assayed against T1, Type-1 angiotensin II receptor (Oryctolagus cuniculus) (UniProt P34976) (assay: Angiotensin II receptor, type 1 antagonist activity in rabbit isolated thoracic aorta).
T1 sequence (whole entry): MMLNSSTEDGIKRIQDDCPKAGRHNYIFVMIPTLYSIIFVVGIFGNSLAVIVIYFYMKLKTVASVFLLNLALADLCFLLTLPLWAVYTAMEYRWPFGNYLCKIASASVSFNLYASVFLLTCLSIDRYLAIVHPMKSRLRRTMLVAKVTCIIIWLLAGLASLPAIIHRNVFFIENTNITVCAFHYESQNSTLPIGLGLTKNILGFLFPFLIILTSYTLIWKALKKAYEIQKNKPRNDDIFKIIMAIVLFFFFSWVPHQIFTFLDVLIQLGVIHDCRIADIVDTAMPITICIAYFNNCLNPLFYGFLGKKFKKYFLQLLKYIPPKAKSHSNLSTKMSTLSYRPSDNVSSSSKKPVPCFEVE
Type: functional, tissue-based

pKB | SMILES
10.6 | CCCCc1nc(Cl)c(C(=O)O)n1Cc1ccc(-c2ccccc2-c2nn[nH]n2)cc1
6.9 | CCCCc1nc(Cl)c(CO)n1Cc1ccc(-c2ccccc2C(=O)O)cc1
8.4 | CCCCc1nc(Cl)c(CO)n1Cc1ccc(-c2ccccc2-c2nnn[nH]2)cc1
